Assay [1] concerns the target T1, AChE (Homo sapiens, UniProt P22303). The assay is described as follows: biochemical. It counts as biochemical.
For assay [2], the target named is T1, AChE. It is filed as biochemical.
The target of assay [3] is ChE (Homo sapiens, UniProt P06276). It is filed as biochemical.
For assay [4] the following is noted: human, in vivo; cited from earlier work.

T1 sequence (P22303 32-614): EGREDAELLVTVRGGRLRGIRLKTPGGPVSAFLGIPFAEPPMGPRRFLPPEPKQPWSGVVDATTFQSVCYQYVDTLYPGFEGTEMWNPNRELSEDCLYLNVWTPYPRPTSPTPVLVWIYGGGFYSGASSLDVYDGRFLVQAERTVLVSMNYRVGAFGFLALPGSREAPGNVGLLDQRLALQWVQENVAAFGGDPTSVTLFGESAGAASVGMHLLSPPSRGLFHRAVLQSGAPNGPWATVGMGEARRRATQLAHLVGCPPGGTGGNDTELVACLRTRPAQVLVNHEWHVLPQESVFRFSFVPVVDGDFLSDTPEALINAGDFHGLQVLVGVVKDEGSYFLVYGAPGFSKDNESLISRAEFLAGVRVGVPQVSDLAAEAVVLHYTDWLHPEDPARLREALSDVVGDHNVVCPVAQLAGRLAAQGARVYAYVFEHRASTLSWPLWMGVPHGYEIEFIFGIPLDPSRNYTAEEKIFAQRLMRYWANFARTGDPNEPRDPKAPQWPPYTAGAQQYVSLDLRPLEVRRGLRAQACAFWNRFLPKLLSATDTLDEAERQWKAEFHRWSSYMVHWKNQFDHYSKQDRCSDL

For the molecule `C=CC[N+](C)(C)c1ccc(CCC(=O)CCc2ccc([N+](C)(C)CC=C)cc2)cc1` [BW284C51, 1,5-bis-(4-allyldimethylammoniumphenyl)-pentan-3-one dibromide], in assay [1], the AcThCho degraded stood at 3 ± 1 pmol/hr per ng mRNA and the remaining activity at 10 µM stood at 1 ± 0.3%. Moreover, in assay [2], the “sensitivity of tumor mRNA-induced AChE activity to selective inhibitor” value is “sensitive”.

Consider `CC(C)NP(=O)(NC(C)C)OP(=O)(NC(C)C)NC(C)C` [iso-OMPA, tetraisopropylpyrophosphoramide], for which, in assay [1], the AcThCho degraded is 280 ± 10 pmol/hr per ng mRNA, the remaining activity at 10 µM is 98 ± 3% and the “sensitivity of oocyte-produced enzyme to inhibition (in words)” value is “totally insensitive”. Also, the “sensitivity of tumor mRNA-induced ChE activity to selective inhibitor” value in assay [3] was “sensitive”.

B1: BuChE from human serum: Purified BuChE from human serum (protein, UniProt P06276 29-602, looked up)
Cholinesterase: EDDIIIATKNGKVRGMNLTVFGGTVTAFLGIPYAQPPLGRLRFKKPQSLTKWSDIWNATKYANSCCQNIDQSFPGFHGSEMWNPNTDLSEDCLYLNVWIPAPKPKNATVLIWIYGGGFQTGTSSLHVYDGKFLARVERVIVVSMNYRVGALGFLALPGNPEAPGNMGLFDQQLALQWVQKNIAAFGGNPKSVTLFGESAGAASVSLHLLSPGSHSLFTRAILQSGSFNAPWAVTSLYEARNRTLNLAKLTGCSRENETEIIKCLRNKDPQEILLNEAFVVPYGTPLSVNFGPTVDGDFLTDMPDILLELGQFKKTQILVGVNKDEGTAFLVYGAPGFSKDNNSIITRKEFQEGLKIFFPGVSEFGKESILFHYTDWVDDQRPENYREALGDVVGDYNFICPALEFTKKFSEWGNNAFFYYFEHRSSKLPWPEWMGVMHGYEIEFVFGLPLERRDNYTKAEEILSRSIVKRWANFAKYGNPNETQNNSTSWPVFKSTEQKYLTLNTESTRIMTKLRAQQCRFWTSFFPKVLEMTGNIDEAEWEWKAGFHRWNNYMMDWKNQFNDYTSKKESCVGL
As to B1, the “effect on symptoms of OP-intoxicated patients” value in assay [4] is recorded as “improve the symptoms”.

(Values after patent US5595903A (priority 1989, dated 1997).)
